Patent publication EP4311545A1, “COMPOUNDS USEFUL FOR THE POST-STING TREATMENT FROM A CNIDARIAN ORGANISM” (Isdin, S. A., priority 2022, dated 2024)

Tested on: P. noctiluca
Assay: Tentacle Skin Blood Agarose Assay (TSBAA): venom load after natural stimulation of nematocyst discharge
Assay type: cell-based
Settings: for discharge of nematocysts: summary of the results of Examples 1 and 2
Protocol: Example 2: Natural stimulation of nematocyst discharge. Tentacle Skin Blood Agarose Assay (TSBAA).
Briefly, an agarose gel preparation incorporating sheep red blood cells (SRBCs) (Thermo Fisher Scientific) was used covered by a thin tissue of pig intestine to simulate the effect of the human skin barrier.
A solution of 4% low melting point agarose (INVITROGEN ™ LMP Agarose) in phosphate buffered saline (PBS) (SIGMA) was prepared and cooled to room temperature for a few minutes. The SRBCs were centrifuged and resuspended in PBS until a final concentration of 2% was obtained. Equal volumes of both preparations were mixed and poured onto a glass surface with a mold (18x7.5 cm) and allowed to cool to room temperature. Once the agarose with SRBCs was set, rectangles were cut and placed on slides and kept at 4 °C in a humidification chamber (maximum 72 hours until use).
Pig small intestine tissue was washed in a 50 mM saline solution and then cut in rectangular sections. […] The next day, the sections were stretched on a glass surface and allowed to dry for a few minutes in the open air. The pretreated sections of the pig small intestine were placed on the SRBC agarose rectangles
Cutting tentacles of the same size is a complicated process due to the contraction and expansion of the tentacles after their manipulation. In order to control the sting area, we design plastic molds obtained through a 3D printer.
Tentacle pieces of approximately 3 cm long were incubated on reductor or inhibitory solutions (Method 3) for 5 minutes. Consecutively, the agarose rectangles were stung by a sting diameter of 57,35 mm^2 for 1 minute. A weight of 0,66 g was applied to ensure the contact between the tentacle and the skin. After the sting process, the plastic molds and the intestine sections were removed and the SRBC's agarose rectangles were stored in the humidification chamber at room temperature. After a period of 22 hours, images of the hemolytic areas were obtained with a camera. Hemolytic areas were calculated using the Fiji version of ImageJ software (J. Schindelin et al., Fiji: an open-source platform for biological-image analysis. Nature methods, 2012, vol. 9, pp. 676-682). Table 2. Inhibitory efficacy on the venom load to P. noctiluca.

CC(O)CCO (stereo not shown) [100% Butylene glycol, Butylene glycol]
Venom load - Hemolytic area (%) (tentacles incubated 5 minutes in solution, sting 1 minute on SRBC agarose covered with pig intestine, read after 22 hours): 26.54 ± 19.66% | % Inhibitory ({}): 56.33%

CC(C)(C)C1CCC(O)CC1 (stereo not shown) [4-tert-butyl cyclohexanol]
discharge of nematocysts: significantly reduces

O=C(CO)c1ccccc1 [HAP, hydroxy acetophenone]
discharge of nematocysts: significantly reduces
